Type in all cases: in vivo
The subject of assay [1] is weeds. Briefly: Example 5: pre-emergence weed control on corn at relatively low application rates of pethoxamid (Table 13). Particulars: 300 g/ha pethoxamid. The protocol: (§1) The herbicidal compounds bixlozone and pethoxamid were applied in a variety of forms and at a variety of amounts, application rates, and normalities. Efficacy of the herbicidal compositions was evaluated with reference to a scale of 0% to 100% in comparison with untreated control plots. 0 means no damage to the harmful plants and 100 means complete destruction of the harmful plants. Plants per square meter is indicated by “pl/m^2”, and grams per hectare is indicated by “g/ha”. The acronym “EC” means emulsifiable concentrate (a liquid, homogenous formulation to be applied as an emulsion after dilution with water); “SC” means suspension concentrate (a stable suspension of active ingredient(s) with water as the fluid); “ZC” refers to a mixed formulation of CS and SC (a stable suspension of capsules and active ingredient(s) in a fluid, normally intended for dilution with water before use).
Various forms, compositions, and mixtures of bixlozone and pethoxamid were applied to corn before emergence. […] Mixtures of bixlozone with 300 g/ha pethoxamid improved weed spectrum on a range of broad leaf weeds (e.g., SOLNI and ABUTH). Combinations of bixlozone and pethoxamid in pre-emergence applications were very safe with no clear pethoxamid rate effect.

The test system of assay [2] is weeds. Briefly: Example 3: pre-emergence weed control on corn at relatively high application rates of pethoxamid (Tables 8-11). Particulars: 1200 g/ha pethoxamid. The text has this:
[formula] • where ppm=milligrams of active ingredient (=a.i.) per liter of spray mixture X=% action by component A using p ppm of active ingredient Y=% action by component B using q ppm of active ingredient. If the ratio R defined as the action actually observed (O) divided by the expected action (E) is >1 then the action of the combination is superadditive, i.e. there is a synergistic effect. For a more detailed description of the Colby formula, see Colby, S. R. “Calculating Synergistic and Antagonistic Responses of Herbicide Combination”, Weeds, Vol. 15, pages 20-22; 1967; see also Limpel et al., Proc. NEWCC 16:48-53 (1962).
As used herein, rating timings correspond to the following: A1=weed assessment at BBCH 11-12; A2=4 weeks after the application; A3=when ZEAMX crop reaches BBCH 18 (row closure); and A4=BBCH 51-59 of the ZEAMX crop.
The herbicidal compounds bixlozone and pethoxamid were applied in a variety of forms and at a variety of amounts, application rates, and normalities. Efficacy of the herbicidal compositions was evaluated with reference to a scale of 0% to 100% in comparison with untreated control plots. 0 means no damage to the harmful plants and 100 means complete destruction of the harmful plants. Plants per square meter is indicated by “pl/m^2”, and grams per hectare is indicated by “g/ha”. […]

The test system of assay [3] is weeds. In words: Example 4: pre-emergence weed control on corn at relatively medium application rates of pethoxamid (Table 12). Particulars: 800 g/ha pethoxamid. On the procedure: as §1
Various forms, compositions, and mixtures of bixlozone and pethoxamid were applied to corn before emergence. […] Mixtures of bixlozone with 800 g/ha pethoxamid improved weed spectrum on a range of broad leaf weeds (e.g., CHEAL and ABUTH) and grasses (e.g., ECHCG, DIGSA, and SETVI). Combinations of bixlozone and pethoxamid in pre-emergence applications were very safe with no clear pethoxamid rate effect.

Regarding `CC1(C)CON(Cc2ccc(Cl)cc2Cl)C1=O` [bixlozone], the “efficacy (in words)” value in assay [1] is “minimal differences in performance between SC and CS were observed, except on POLSS, SOLNI, ABUTH, and ECHCG”; in assay [2], “minimal differences in performance between SC and CS were observed, except on CHEAL and ECHCG”; in assay [3], “minimal differences in performance between SC and CS were observed, except on CHEAL and ABUTH”.

Source of the values: US20260344670A1, “BIXLOZONE MIXTURES WITH PETHOXAMID” (FMC CORPORATION, priority 2022, published 2026).
